# “And” between values parts separate entries of the source, which are not always exact repeats. Identical values can stand only once.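 Step 1: Grow cells in 96-well plates. Step 2: Expose to compound for 48 hours at 5 concentrations. Step 3: Interpolate endpoints linearly; if unreached, use highest concentration. Abbreviation: GI50, concentration required for 50% inhibition of growth. TGI is the concentration that stops growth completely.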
# What was measured:
# Assay in all cases: growth of human tumour cells (NCI), 48 h
# [1] = tested on: SF-295 CNS
# [2] = tested on: RPMI-8226 leukemia
# [3] = tested on: NCI-H226 lung
# [4] = tested on: HT29 colon
# [5] = tested on: UACC-62 melanoma
# [6] = tested on: HCT-116 colon
# [7] = tested on: HS 578T breast
# [8] = tested on: SF-268 CNS
# [9] = tested on: SF-539 CNS
# [10] = tested on: SNB-19 CNS
# [11] = tested on: COLO 205 colon
# [12] = tested on: SK-MEL-28 melanoma
# [13] = tested on: TK-10 renal
# [14] = tested on: CAKI-1 renal
# [15] = tested on: OVCAR-5 ovarian
# [16] = tested on: A549 NSCLC
# [17] = tested on: SR leukemia
# [18] = tested on: CCRF-CEM leukemia
# [19] = tested on: EKVX NSCLC
# [20] = tested on: HOP-92 NSCLC
# [21] = tested on: PC-3 prostate
# [22] = tested on: OVCAR-3 ovarian
# [23] = tested on: ACHN renal
# [24] = tested on: SNB-75 CNS
# [25] = tested on: MDA-MB-231 breast
# [26] = tested on: HCT-15 colon
# [27] = tested on: MDA-MB-435
# [28] = tested on: SK-OV-3 ovarian
# [29] = tested on: MOLT-4 leukemia
# [30] = tested on: RXF 393 renal
# [31] = tested on: NCI-H460 lung
# [32] = tested on: K-562 leukemia
# [33] = tested on: OVCAR-4 ovarian
# [34] = tested on: BT-549 breast
# [35] = tested on: 786-0 renal
# [36] = tested on: IGROV1 ovarian
# [37] = tested on: MALME-3M melanoma
# [38] = tested on: NCI-H522 lung
# [39] = tested on: M14 melanoma
# [40] = tested on: KM12 colon
# [41] = tested on: HCC-2998 colon
# [42] = tested on: SW-620 colon
# [43] = tested on: SK-MEL-5 melanoma
# [44] = tested on: LOX IMVI melanoma
# [45] = tested on: SN12C renal
# [46] = tested on: SK-MEL-2 melanoma
# [47] = tested on: HOP-62 NSCLC
# [48] = tested on: OVCAR-8 ovarian
# [49] = tested on: NCI/ADR-RES ovarian
# [50] = tested on: HL-60(TB) leukemia
# [51] = tested on: NCI-H23 lung
# [52] = tested on: MCF7 breast
# [53] = tested on: UO-31 renal
# [54] = tested on: UACC-257 melanoma
# [55] = tested on: A498 renal
# [56] = tested on: T-47D breast
# [57] = tested on: U251 CNS
# [58] = tested on: DU-145 prostate
smiles,measurement,setting,value
NC1(C(=O)N[C@@H](CCO)c2ccc(Cl)cc2)CCN(c2ncnc3[nH]ccc23)CC1,GI50,[1],455 nM and 482 nM
same,TGI,[1],> 5.03 µM and 12.9 µM
same,GI50,[2],> 2.61 µM and 27.3 µM
same,TGI,[2],> 81.8 µM
same,GI50,[3],2.14 µM and 7.92 µM
same,TGI,[3],> 83.4 µM
same,GI50,[4],2.5 µM and 5.26 µM
same,TGI,[4],> 100 µM
same,GI50,[5],608 nM and 1850 nM
same,TGI,[5],4 µM and 23.7 µM
same,GI50,[6],2.75 µM and 10.7 µM
same,TGI,[6],> 10 µM and 78.6 µM
same,GI50,[7],177 nM and 421 nM
same,GI50,[8],> 2.26 µM and 32.2 µM
same,TGI,[8],> 100 µM
same,GI50,[9],223 nM and 417 nM
same,TGI,[9],2.42 µM and 13.2 µM
same,GI50,[10],1500 nM and 3820 nM
same,TGI,[10],> 100 µM
same,GI50,[11],1.9 µM and 10.9 µM
same,TGI,[11],> 83.7 µM
same,GI50,[12],1.69 µM and 7.47 µM
same,TGI,[12],> 100 µM
same,GI50,[13],1040 nM and 2560 nM
same,TGI,[13],> 69.7 µM
same,GI50,[14],> 2.14 µM and 14.1 µM
same,TGI,[14],> 100 µM
same,GI50,[15],> 2.22 µM and 9.44 µM
same,TGI,[15],> 100 µM
same,GI50,[16],> 3.15 µM and 12 µM
same,TGI,[16],> 92.1 µM
same,GI50,[17],2.24 µM and 5.95 µM
same,TGI,[17],> 10 µM and 39.5 µM
same,GI50,[18],499 nM and 1180 nM
same,TGI,[18],> 58.4 µM
same,GI50,[19],7.46 µM
same,TGI,[19],> 100 µM
same,GI50,[20],167 nM and 144 nM
same,TGI,[20],1540 nM and 1530 nM
same,GI50,[21],860 nM and 841 nM
same,TGI,[21],> 100 µM
same,GI50,[22],> 2.43 µM and 28 µM
same,TGI,[22],> 100 µM
same,GI50,[23],> 2.01 µM and 9.6 µM
same,TGI,[23],> 100 µM
same,GI50,[24],245 nM and 110 nM
same,TGI,[24],> 3280 nM and 2190 nM
same,GI50,[25],> 3.44 µM and 41 µM
same,TGI,[25],> 100 µM
same,GI50,[26],> 3.33 µM and 53.9 µM
same,TGI,[26],> 100 µM
same,GI50,[27],2.34 µM and 4.94 µM
same,TGI,[27],> 100 µM
same,GI50,[28],306 nM and 842 nM
same,TGI,[28],> 3.09 µM and 38.5 µM
same,GI50,[29],505 nM and 644 nM
same,TGI,[29],> 10 µM and 21.5 µM
same,GI50,[30],130 nM and 354 nM
same,TGI,[30],0.69 µM and 5.83 µM
same,GI50,[31],679 nM and 1740 nM
same,TGI,[31],> 100 µM
same,GI50,[32],> 5.28 µM and 59.9 µM
same,TGI,[32],> 100 µM
same,GI50,[33],> 3.08 µM and 33.7 µM
same,TGI,[33],> 100 µM
same,GI50,[34],366 nM and 624 nM
same,TGI,[34],> 5.01 µM and 13 µM
same,GI50,[35],292 nM and 354 nM
same,TGI,[35],> 100 µM
same,GI50,[36],102 nM and 270 nM
same,TGI,[36],> 100 µM
same,GI50,[37],977 nM and 2380 nM
same,TGI,[37],> 3.54 µM and 18.7 µM
same,GI50,[38],> 2.05 µM and 17.1 µM
same,TGI,[38],> 90.3 µM
same,GI50,[39],> 2.68 µM and 9.15 µM
same,TGI,[39],> 81.4 µM
same,GI50,[40],927 nM and 2780 nM
same,TGI,[40],> 77.2 µM
same,GI50,[41],> 2.1 µM and 8.17 µM
same,TGI,[41],> 100 µM
same,GI50,[42],> 3.5 µM and 24.8 µM
same,TGI,[42],> 100 µM
same,GI50,[43],> 3.51 µM and 19.1 µM
same,TGI,[43],> 5.59 µM and 62 µM
same,GI50,[44],> 2.85 µM and 22.2 µM
same,TGI,[44],> 100 µM
same,GI50,[45],13.9 µM
same,TGI,[45],> 100 µM
same,GI50,[46],> 4.51 µM and 16.3 µM
same,TGI,[46],> 82.8 µM
same,GI50,[47],3.69 µM and 4.89 µM
same,TGI,[47],> 100 µM
same,GI50,[48],> 4.3 µM and 42.5 µM
same,TGI,[48],> 100 µM
same,GI50,[49],> 100 µM
same,TGI,[49],> 100 µM
same,GI50,[50],> 4.63 µM and 24.2 µM
same,TGI,[50],> 67.8 µM
same,GI50,[51],> 3.45 µM and 13.9 µM
same,TGI,[51],> 100 µM
same,GI50,[52],632 nM and 1720 nM
same,TGI,[52],> 100 µM
same,GI50,[53],1.17 µM and 5.53 µM
same,TGI,[53],> 5.24 µM and 72.1 µM
same,GI50,[54],3.8 µM and 7.39 µM
same,TGI,[54],> 100 µM
same,GI50,[55],70.9 nM and 135 nM
same,TGI,[55],522 nM and 939 nM
same,GI50,[56],167 nM and 439 nM
same,TGI,[56],> 76.8 µM
same,GI50,[57],> 3380 nM and 2000 nM
same,TGI,[57],> 100 µM
same,GI50,[58],> 2.74 µM and 29.7 µM
same,TGI,[58],> 100 µM
